Test results: US10258640B2, “Method of inhibiting quorum sensing in Pseudomonas aeruginosa” (priority 2015, dated 2019)

Columns and labels:
[1] = target: wild-type Vfr binding to the promoter of lasR (plasR) (Pseudomonas aeruginosa, UniProt P55222); experiment: Electrophoretic mobility shift assay (EMSA), wild-type Vfr; conditions: increasing concentrations
Excerpt: (§1) It depicts auranofin inhibiting the binding of wild-type Vfr, but not of the mutant pentaCys variant, to a DNA fragment containing the lasR promoter sequence (plasR) in a dose dependent manner.
(§2) It was hypothesized that auranofin inhibits Vfr, a global response regulator dependent on cyclic-AMP, which is known to control Type III secretion, Type IV pilus assembly and the quorum sensing networks (las and rhl). This was validated using electrophoretic mobility shift assays (EMSA) (see FIG. 6). Based on the EMSA, it can be seen that the binding of wild-type Vfr to the promoter of lasR (plasR), was inhibited by treatment with auranofin. In contrast, the binding of mutant Vfr proteins (C38S/C97S or C38S/C183S) to the same DNA fragment was not inhibited by auranofin.

[2] = system: las quorum-sensing system; experiment: PA01 lasB-gfp cell-based fluorescence reporter assay; set-up: species or system Pseudomonas aeruginosa; conditions: various micromolar concentrations
Excerpt: The inhibition of quorum sensing has been observed by the inventors during a chemical screen set up to look for small-molecule inhibitors of quorum sensing in P. aeruginosa. The assay used is a cell-based fluorescence assay (PA01 lasB-gfp) in which the expression of GFP is controlled by a las-regulated promoter. Inhibition of induction of the las quorum-sensing system by a small molecule is marked by the reduction in GFP signal relative to an untreated sample.

[3] = system: rhl quorum-sensing system; experiment: PA01 rhlA-gfp reporter assay; type: cell-based, Pseudomonas aeruginosa; conditions: various micromolar concentrations
P. aeruginosa proteome = experiment: Proteomic analysis of auranofin-treated cultures; type: cell-based, Pseudomonas aeruginosa; conditions: proteome in presence or absence of auranofin
pyocyanin = experiment: Pyocyanin levels in culture supernatants (absorbance at 691 nm); type: cell-based, Pseudomonas aeruginosa; conditions: culture supernatants after 7 hours of treatment, various micromolar concentrations
Protocol: Pyocyanin levels were determined via absorbance at 691 nm.

[4] = system: Δvfr strain expressing pentaCys Vfr; experiment: Twitching motility in Δvfr strain complemented with pentaCys Vfr; type: cell-based, Pseudomonas aeruginosa
P. aeruginosa (PA01) [5] = experiment: Twitching motility assay; type: cell-based, Pseudomonas aeruginosa; conditions: 10 μM
Excerpt: (§3) The top-left and bottom-left petri dishes contain P. aeruginosa (PA01) and PA01-lasIrhlI, respectively, serving as the controls.

P. aeruginosa = experiment: Growth of P. aeruginosa; type: cell-based, Pseudomonas aeruginosa; conditions: low micromolar concentrations
elastase (LasB) = experiment: Elastase activity in culture supernatants (commercial elastase activity kit); type: cell-based, Pseudomonas aeruginosa; conditions: culture supernatants after 7 hours of treatment, various micromolar concentrations
Protocol: LasB levels were measured using a commercial elastase activity kit.

P. aeruginosa (PA01) [6] = experiment: Swarming motility assay; type: cell-based, Pseudomonas aeruginosa; conditions: 10 μM
Excerpt: as §3

[7] = system: Δvfr strain expressing pentaCys Vfr; experiment: Quorum sensing (LasB production) in Δvfr strain complemented with pentaCys Vfr; type: cell-based, Pseudomonas aeruginosa
rhamnolipids = experiment: Rhamnolipid levels in culture supernatants (MRM mass spectrometry); type: cell-based, Pseudomonas aeruginosa; conditions: culture supernatants after 7 hours of treatment, various micromolar concentrations
Protocol: Rhamnolipid levels were determined using multiple reaction monitoring (MRM) mass spectrometry.

[8] = system: mutant Vfr proteins (C38S/C97S or C38S/C183S) binding to plasR; experiment: Electrophoretic mobility shift assay (EMSA), mutant Vfr; set-up: species or system Pseudomonas aeruginosa; conditions: increasing concentrations
Excerpt: as §1, §2

P. aeruginosa biofilms = experiment: Biofilm treatment (GFP-expressing cells, propidium iodide staining, imaging); type: cell-based, Pseudomonas aeruginosa
Protocol: FIG. 8 depicts the effects of auranofin, and its combination either with colistin or tobramycin, on the morphology of biofilms formed using P. aeruginosa cells expressing green fluorescent protein (GFP). DNA from dead cells were labeled with propidium iodide. Auranofin was added either prior to (lower panels) or after formation of the biofilm (24 h before imaging, middle panels). Colistin and tobramycin were added after formation of the biofilm (24 h before imaging, middle panels). […] Scale bar: 5 μm.
Quorum sensing inhibitors are known to affect biofilm morphology and structure. Since auranofin inhibits Vfr, which in turn affects quorum sensing, the effects of auranofin treatment on P. aeruginosa biofilms were investigated.

[9] = system: lasA, rhlA, pqsA, exsC, pscL, pilM and pilY genes; experiment: Quantitative RT-PCR of RNA levels; type: cell-based, Pseudomonas aeruginosa
P. aeruginosa (PA01) [10] = experiment: Swimming motility assay; type: cell-based, Pseudomonas aeruginosa; conditions: 10 μM
[11] = system: pqs quorum-sensing system; experiment: PA01 pqsA-gfp reporter assay; type: cell-based, Pseudomonas aeruginosa; conditions: various micromolar concentrations

Sequence of wild-type Vfr binding to the promoter of lasR (plasR) (P55222 whole entry, the tested form may be a part): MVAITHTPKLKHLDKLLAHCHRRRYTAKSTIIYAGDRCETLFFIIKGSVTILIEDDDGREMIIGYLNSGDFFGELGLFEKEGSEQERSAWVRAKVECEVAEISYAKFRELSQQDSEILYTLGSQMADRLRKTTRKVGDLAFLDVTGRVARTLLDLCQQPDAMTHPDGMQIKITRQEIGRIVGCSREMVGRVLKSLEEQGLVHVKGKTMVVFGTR

Row | Compound | binding of wild-type Vfr to the promoter of lasR (plasR) [1] | induction of las (PA01 lasB-gfp) quorum-sensing network, RFU/OD against time [2] | induction of rhl (PA01 rhlA-gfp) quorum-sensing network, RFU/OD against time [3] | cellular levels of proteins controlled by quorum sensing (P. aeruginosa proteome) | levels of proteins involved in Type III secretion and formation of the Type IV pilus (P. aeruginosa proteome) | level of virulence factor pyocyanin (pyocyanin) | twitching in the strain expressing the pentaCys Vfr [4] | twitching motility (P. aeruginosa (PA01) [5]) | effect on growth of P. aeruginosa (P. aeruginosa) | level of virulence factor LasB (elastase activity) (elastase (LasB)) | swarming motility (P. aeruginosa (PA01) [6]) | QS (LasB production) in the strain expressing the pentaCys Vfr [7] | level of virulence factor rhamnolipids (rhamnolipids) | binding of mutant Vfr proteins to the same DNA fragment (plasR) [8] | biofilm morphology disruption and killing, together with colistin (P. aeruginosa biofilms; auranofin together with colistin) | biofilm morphology disruption and killing, together with tobramycin (P. aeruginosa biofilms; auranofin together with tobramycin) | effect on biofilm morphology and cell death (P. aeruginosa biofilms; auranofin treatment prior to biofilm formation) | RNA levels of quorum-sensing regulated, Type III secretion and Type IV pilus assembly genes [9] | swimming motility (P. aeruginosa (PA01) [10]) | induction of pqs (PA01 pqsA-gfp) quorum-sensing network, RFU/OD against time [11]
1 | CC(=O)OC[C@H]1O[C@@H]([S-])[C@H](OC(C)=O)[C@@H](OC(C)=O)[C@@H]1OC(C)=O.CCP(CC)CC.[Au+] [auranofin] | inhibited | completely inhibiting | completely inhibiting | down-regulated | down-regulation | reduced | still able to inhibit | inhibit | not affecting growth | reduced | inhibit | still able to inhibit | reduced | not inhibited | synergistic effects | synergistic effects | substantial cell death and the loss of the characteristic morphology of normal biofilms | generally down-regulated | does not inhibit | completely inhibiting
2 | OC[C@H]1O[C@H]([S-])[C@H](O)[C@@H](O)[C@@H]1O.[Au+] [aurothioglucose] |  | completely inhibiting |  |  |  |  |  |  |  |  |  |  |  |  |  |  |  |  |  | 
3 | sodium aurothiomalate |  | completely inhibiting |  |  |  |  |  |  |  |  |  |  |  |  |  |  |  |  |  | 
